Measured values from patent US20110105509A1 (Wyeth, LLC, priority 2009, published 2011).

target: T1, CRTH2 (Homo sapiens, UniProt Q9Y5Y4); assay: FRET based competitive immunoassay (cAMP) in CRTH2 expressing CHO cells; assay type: cell-based; conditions: CRTH2 expressing CHO cells incubated with forskolin and PGD2; Eu3+ cryptate-labeled anti-cAMP and d2-labeled cAMP
T1 construct: expressed in transfected cells; host or cells: CHO cells
T1 sequence (Q9Y5Y4 1-395): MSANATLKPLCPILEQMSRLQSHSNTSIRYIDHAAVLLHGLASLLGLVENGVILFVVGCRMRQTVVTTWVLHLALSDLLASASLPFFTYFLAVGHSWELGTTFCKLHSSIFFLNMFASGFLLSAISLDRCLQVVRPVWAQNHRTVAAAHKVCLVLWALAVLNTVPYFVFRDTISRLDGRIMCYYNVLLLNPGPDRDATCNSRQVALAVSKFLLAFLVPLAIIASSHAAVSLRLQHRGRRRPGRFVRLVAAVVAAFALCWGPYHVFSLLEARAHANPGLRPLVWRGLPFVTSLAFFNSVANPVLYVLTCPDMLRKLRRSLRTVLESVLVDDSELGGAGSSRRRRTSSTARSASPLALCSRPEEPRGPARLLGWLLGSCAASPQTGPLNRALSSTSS
Method: FRET Assay: To evaluate potency compounds were tested in a FRET based competitive immunoassay in which CRTH2 expressing CHO cells were incubated in the presence of forskolin and PGD2 along with Eu3+ cryptate-labeled anti-cAMP and d2-labeled cAMP.

Row | Compound | IC50 [nM]
1 | Cc1c(-c2nn(Cc3cccc(F)c3)c(=O)c3ccccc23)c2cc(F)ccc2n1CC(=O)O [Example 329, {5-fluoro-3-[3-(3-fluorobenzyl)-4-oxo-3,4-dihydrophthalazin-1-yl]-2-methyl-1H-indol-1-yl}acetic acid] | 3
2 | Cc1c(-c2nn(C(C)C)c(=O)c3ccccc23)c2cc(F)ccc2n1CC(=O)O [Example 330, {5-fluoro-2-methyl-3-[3-(1-methylethyl)-4-oxo-3,4-dihydrophthalazin-1-yl]-1H-indol-1-yl}acetic acid] | 15
3 | Cc1c(-c2nn(Cc3ccc(Cl)cc3Cl)c(=O)c3ccccc23)c2cc(Cl)ccc2n1CC(=O)O [Example 331, {5-chloro-3-[3-(2,4-dichlorobenzyl)-4-oxo-3,4-dihydrophthalazin-1-yl]-2-methyl-1H-indol-1-yl}acetic acid] | 3
4 | Cc1c(-c2nn(Cc3ccc(S(C)(=O)=O)cc3)c(=O)c3ccccc23)c2cc(Cl)ccc2n1CC(=O)O [Example 332, (5-chloro-2-methyl-3-{3-[4-(methylsulfonyl)benzyl]-4-oxo-3,4-dihydro-phthalazin-1-yl}-1H-indol-1-yl)acetic acid] | 26
5 | Cc1c(-c2ccc(=O)n(CC(C)C)n2)c2cc(F)ccc2n1CC(=O)O [Example 333, 2-(5-fluoro-3-(1-isobutyl-6-oxo-1,6-dihydropyridazin-3-yl)-2-methyl-1H-indol-1-yl)acetic acid] | 111
6 | Cc1c(-c2ccc(=O)n(C(C)C)n2)c2cc(F)ccc2n1CC(=O)O [Example 334, [5-fluoro-3-(1-isopropyl-6-oxo-1,6-dihydropyridazin-3-yl)-2-methyl-1H-indol-1-yl]-acetic acid] | 210
7 | Cc1c(Cc2ccc(=O)n(CC(C)(C)C)n2)c2cc(F)ccc2n1CC(=O)O [Example 343, (3-{[1-(2,2-dimethylpropyl)-6-oxo-1,6-dihydropyridazin-3-yl]methyl}-5-fluoro-2-methyl-1H-indol-1-yl)acetic acid] | 142
8 | Cc1c(Cc2ccc(=O)n(CCCC(F)(F)F)n2)c2cc(F)ccc2n1CC(=O)O [Example 344, 2-(5-fluoro-2-methyl-3-((6-oxo-1-(4,4,4-trifluorobutyl)-1,6-dihydropyridazin-3-yl)-methyl)-1H-indol-1-yl)acetic acid] | 17
9 | Cc1c(Cc2ccc(=O)n(CC(F)(F)F)n2)c2cc(F)ccc2n1CC(=O)O [Example 345, (5-fluoro-2-methyl-3-{[6-oxo-1-(2,2,2-trifluoroethyl)-1,6-dihydropyridazin-3-yl]-methyl}-1H-indol-1-yl)acetic acid] | 31
10 | Cc1c(Cc2ccc(=O)n(Cc3ccccc3)c2)c2cc(F)ccc2n1CC(=O)O [Example 346, {3-[(1-benzyl-6-oxo-1,6-dihydropyridin-3-yl)methyl]-5-fluoro-2-methyl-1H-indol-1-yl}acetic acid] | 11
11 | Cc1c(Cc2ccc(=O)n(Cc3ccccc3)c2)c2cc(Cl)ccc2n1CC(=O)O [Example 347, {3-[(1-benzyl-6-oxo-1,6-dihydropyridin-3-yl)methyl]-5-chloro-2-methyl-1H-indol-1-yl}acetic acid] | 11
12 | Cc1c(Cc2ccc(=O)n(Cc3ccccc3)c2)c2ccccc2n1CC(=O)O [Example 348, {3-[(1-benzyl-6-oxo-1,6-dihydropyridin-3-yl)methyl]-2-methyl-1H-indol-1-yl}acetic acid] | 82

Further lines, results first:

Row | IC50 [nM] | Compound
13 | 5 | Cc1c(Cc2ccc(=O)n(Cc3cc(F)ccc3F)n2)c2cc(F)ccc2n1CC(=O)O [Example 336, (3-{[1-(2,5-difluorobenzyl)-6-oxo-1,6-dihydropyridazin-3-yl]methyl}-5-fluoro-2-methyl-1H-indol-1-yl)acetic acid]
14 | 10 | Cc1c(Cc2ccc(=O)n(Cc3ccccc3)n2)c2cc(F)ccc2n1CC(=O)O [Example 337, {3-[(1-benzyl-6-oxo-1,6-dihydropyridazin-3-yl)methyl]-5-fluoro-2-methyl-1H-indol-1-yl}acetic acid]
15 | 5 | Cc1c(Cc2ccc(=O)n(Cc3c(F)cccc3F)n2)c2cc(F)ccc2n1CC(=O)O [Example 338, (3-{[1-(2,6-difluorobenzyl)-6-oxo-1,6-dihydropyridazin-3-yl]methyl}-5-fluoro-2-methyl-1H-indol-1-yl)acetic acid]
16 | 4 | Cc1c(Cc2ccc(=O)n(Cc3cccc(F)c3F)n2)c2cc(F)ccc2n1CC(=O)O [Example 339, (3-{[1-(2,3-difluorobenzyl)-6-oxo-1,6-dihydropyridazin-3-yl]methyl}-5-fluoro-2-methyl-1H-indol-1-yl)acetic acid]
17 | 3 | Cc1c(Cc2ccc(=O)n(Cc3ccccc3F)n2)c2cc(F)ccc2n1CC(=O)O [Example 340, (3-{[1-(2-fluorobenzyl)-6-oxo-1,6-dihydropyridazin-3-yl]methyl}-5-fluoro-2-methyl-1H-indol-1-yl)acetic acid]
18 | 33 | Cc1c(Cc2ccc(=O)n(Cc3cccc(F)c3)n2)c2cc(F)ccc2n1CC(=O)O [Example 341, (3-{[1-(3-fluorobenzyl)-6-oxo-1,6-dihydropyridazin-3-yl]methyl}-5-fluoro-2-methyl-1H-indol-1-yl)acetic acid]
19 | 13 | Cc1c(Cc2ccc(=O)n(Cc3ccc(F)cc3)n2)c2cc(F)ccc2n1CC(=O)O [Example 342, (3-{[1-(4-fluorobenzyl)-6-oxo-1,6-dihydropyridazin-3-yl]methyl}-5-fluoro-2-methyl-1H-indol-1-yl)acetic acid]
